Measurements from patent US5292737A, “N,N'-bis(sulfonamido)-2-amino-4-iminonaphthalen-1-ones and N,N'-bis(amido)-2-amino-4-iminonaphthalen-1-ones” (Sphinx Pharmaceuticals Corporation, priority 1992, dated 1994).

Assays:
PKC isoenzyme α = target: T1, PKC isoenzyme α (Homo sapiens, UniProt P17252); assay: Protein kinase C inhibition assay, PKC isoenzyme α; assay type: biochemical; settings: read-out: IC50 PKC α
T1 construct: made in house; host or cells: baculovirus-insect cell expression system
Method: (§1) A protein kinase C (PKC) assay is designed to duplicate the in vivo conditions required for protein kinase C function. Therefore, pH, salt and cofactor concentrations are similar to physiologic levels. Either lysine rich histone H1 (H1) or Myelin basic protein (Mbp) are used in the assay as the phosphorylation acceptor-protein because they are readily available and serve as good substrates for protein kinase C. Enzyme was prepared from baculovirus-insect cell expression systems.
(§2) In the screening assay, phosphatidylserine (PS) and DAG were co-sonicated to form unilamellar and multilamellar vesicles. The concentration of lipids in the assay were suboptimal to maximize the detection potential of the assay for inhibitors or activators. Potential effector compounds were added to the assay in dimethylsulfoxide at four concentrations to give final inhibitor concentrations of 1, 10, 50, and 150 μM, respectively.
(§3) The assay was started with the addition of enzyme and stopped after 10 min by the addition of 25% trichloroacetic acid (TCA) and 1.0 mg/ml bovine serum albumin (BSA). The radioactive histone product was retained and washed on glass fiber filters that allow the unreacted P-ATP to pass through. The amount of phosphorylation was determined by measuring radioactivity with a scintillation counter. Controls were included in every assay to measure background activity in the absence of enzyme, activity in the absence of lipids, and the maximum enzyme activity with saturating levels of the activator lipids.
(§4) Results of the protein kinase C assay are shown in Table 4 in columns labeled α, βII, γ, δ, ε, and .zeta. which represent various PKC isoenzymes. Results are show as IC50, which is the concentration of test compound needed to inhibit 50% of the protein kinase C activity in controls.

PKC isoenzyme βII = target: T2, PKC isoenzyme βII (Homo sapiens, UniProt P05771); assay: Protein kinase C inhibition assay, PKC isoenzyme βII; assay type: biochemical; settings: read-out: IC50 PKC βII
T2 construct: made in house; host or cells: baculovirus-insect cell expression system
Method: as §1, §2, §3, §4

PKC isoenzyme γ = target: T3, PKC isoenzyme γ (Homo sapiens, UniProt P05129); assay: Protein kinase C inhibition assay, PKC isoenzyme γ; assay type: biochemical; settings: read-out: IC50 PKC γ
T3 construct: made in house; host or cells: baculovirus-insect cell expression system
Method: as §1, §2, §3, §4

PKC isoenzyme δ = target: T4, PKC isoenzyme δ (Homo sapiens, UniProt Q05655); assay: Protein kinase C inhibition assay, PKC isoenzyme δ; assay type: biochemical; settings: read-out: IC50 PKC δ
T4 construct: made in house; host or cells: baculovirus-insect cell expression system
Method: as §1, §2, §3, §4

PKC isoenzyme ε = target: T5, PKC isoenzyme ε (Homo sapiens, UniProt Q02156); assay: Protein kinase C inhibition assay, PKC isoenzyme ε; assay type: biochemical; settings: read-out: IC50 PKC ε
T5 construct: made in house; host or cells: baculovirus-insect cell expression system
T5 sequence (Q02156 1-737): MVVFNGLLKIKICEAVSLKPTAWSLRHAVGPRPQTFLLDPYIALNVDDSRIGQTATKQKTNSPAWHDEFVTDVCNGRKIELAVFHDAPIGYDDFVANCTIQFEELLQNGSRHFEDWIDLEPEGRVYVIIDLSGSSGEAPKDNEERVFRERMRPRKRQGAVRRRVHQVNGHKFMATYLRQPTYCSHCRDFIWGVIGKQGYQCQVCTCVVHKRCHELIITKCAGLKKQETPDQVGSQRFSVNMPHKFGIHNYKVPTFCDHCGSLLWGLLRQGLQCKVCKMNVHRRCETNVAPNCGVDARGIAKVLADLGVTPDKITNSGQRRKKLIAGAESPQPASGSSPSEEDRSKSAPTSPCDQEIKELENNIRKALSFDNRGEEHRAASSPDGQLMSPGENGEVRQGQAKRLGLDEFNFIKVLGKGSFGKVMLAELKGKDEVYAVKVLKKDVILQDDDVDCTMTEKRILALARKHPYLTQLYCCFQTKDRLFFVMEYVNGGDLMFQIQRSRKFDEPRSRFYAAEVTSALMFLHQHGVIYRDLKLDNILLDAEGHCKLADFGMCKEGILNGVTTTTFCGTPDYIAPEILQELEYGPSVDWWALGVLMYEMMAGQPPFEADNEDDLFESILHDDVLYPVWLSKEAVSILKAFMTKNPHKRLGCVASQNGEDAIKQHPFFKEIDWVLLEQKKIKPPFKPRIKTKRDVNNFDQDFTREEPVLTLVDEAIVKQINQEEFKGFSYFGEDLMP
Method: as §1, §2, §3, §4

PKC isoenzyme ζ = target: T6, PKC isoenzyme ζ (Homo sapiens, UniProt Q05513); assay: Protein kinase C inhibition assay, PKC isoenzyme ζ; assay type: biochemical; settings: read-out: IC50 PKC .zeta.
T6 construct: made in house; host or cells: baculovirus-insect cell expression system
T6 sequence (Q05513 1-592): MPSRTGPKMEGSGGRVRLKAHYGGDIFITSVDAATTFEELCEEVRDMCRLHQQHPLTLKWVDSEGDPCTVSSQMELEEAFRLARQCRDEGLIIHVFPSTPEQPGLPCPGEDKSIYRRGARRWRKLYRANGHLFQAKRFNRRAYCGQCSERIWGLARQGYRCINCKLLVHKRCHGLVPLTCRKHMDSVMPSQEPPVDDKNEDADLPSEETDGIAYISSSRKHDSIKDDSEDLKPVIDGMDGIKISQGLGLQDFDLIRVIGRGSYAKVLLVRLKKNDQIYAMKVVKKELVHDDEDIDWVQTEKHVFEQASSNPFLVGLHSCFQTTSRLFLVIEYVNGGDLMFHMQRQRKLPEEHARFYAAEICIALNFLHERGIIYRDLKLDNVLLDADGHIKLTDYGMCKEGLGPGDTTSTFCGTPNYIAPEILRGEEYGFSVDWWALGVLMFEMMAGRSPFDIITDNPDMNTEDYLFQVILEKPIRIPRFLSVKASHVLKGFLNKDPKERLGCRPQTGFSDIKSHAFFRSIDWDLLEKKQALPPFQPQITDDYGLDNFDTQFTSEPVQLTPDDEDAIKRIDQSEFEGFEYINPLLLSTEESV
Method: as §1, §2, §3, §4

[1] = target: cAMP dependent protein kinase (PKA); assay: cAMP Dependent Protein Kinase (PKA) Assay; assay type: biochemical; settings: for IC50: catalytic subunit of PKA
Method: Compounds found to be inhibitors of protein kinase C were tested for inhibitory activity against cAMP dependent protein kinase (PKA). This enzyme, like protein kinase C, plays an important role in cell-cell communication and is activated by a second messenger, cAMP. Secondary screening against PKA is useful for ascertaining the selectivity of the compounds of the invention.
The catalytic subunit of PKA (Sigma Chemical Company, St. Louis, Mo.) was mixed with buffer before addition of the inhibitor in dimethylsulfoxide (DMSO). Potential inhibitor compounds were added to the assay in dimethylsulfoxide at two concentrations to give final inhibitor concentrations of 30 and 150 μM, respectively. The assay was started by the addition of ^32 P-ATP and the reaction was allowed to proceed for 10 min before stopping with 25% trichloroacetic acid (TCA) and 1.0 mg/ml bovine serum albumin (BSA). Phosphorylated protein was then isolated by filtration and the radioactivity was counted by a beta scintillation counter.

[2] = test system: normal human epidermal keratinocyte (NHEK) cells; assay: Human Keratinocyte Inhibition (3H TdR Assay); assay type: cell-based; settings: Homo sapiens, 24 h incubation, 3H-thymidine
Method: Proliferating normal human epidermal keratinocyte (NHEK) cells were obtained in the second passage and grown in keratinocyte growth medium, KGM (Clonetics, Inc.) at 37° C., 5% CO2. The cells were trypsinized (0.25%), centrifuged, counted with a hemocytometer, and seeded at a concentration of 5000 cells in 100 μl well in a 96-well microtiter plate.
After the cells were allowed to attach to the microtiter plate overnight, test agents were titrated to determine the dose response. This was done by adding each test agent dilution in quadruplicate to the plate at 2× final concentration in 100 μl to bring the total volume of each well to 200 μl. Culture media with no test agent added was used as a normal control. Duplicate sets of plates were established.
After twenty-four hours of incubation with test compounds 37° C. and 5% CO2, […] of 0.01 mCi/ml tritiated thymidine (New England Nuclear) was added to each well and allowed to incubate for another 4 hours under the same conditions.
Supernatant was aspirated and discarded and […] of 0.05% trypsin (Gibco) was added to each cell. Cells were checked microscopically to determine detachment from surfaces and then harvested onto glass filters. The filters were then placed in vials to which scintillant was added and counted for one minute each in a scintillation counter.
Determine mean cpm of wells containing test agent (n=4) or KGM control (n=16). Calculate % of control by the formula: [formula]
The IC50, or connection necessary to inhibit 50% of control, of each test agent was determined by plotting % control vs log concentration for each dilution and then linear forecasting the 50% control value onto the X axis on a Quatro Pro computer program. Only regression values with a correlation coefficient greater than 0.9 were considered acceptable.

T4 sequence (Q05655 whole entry): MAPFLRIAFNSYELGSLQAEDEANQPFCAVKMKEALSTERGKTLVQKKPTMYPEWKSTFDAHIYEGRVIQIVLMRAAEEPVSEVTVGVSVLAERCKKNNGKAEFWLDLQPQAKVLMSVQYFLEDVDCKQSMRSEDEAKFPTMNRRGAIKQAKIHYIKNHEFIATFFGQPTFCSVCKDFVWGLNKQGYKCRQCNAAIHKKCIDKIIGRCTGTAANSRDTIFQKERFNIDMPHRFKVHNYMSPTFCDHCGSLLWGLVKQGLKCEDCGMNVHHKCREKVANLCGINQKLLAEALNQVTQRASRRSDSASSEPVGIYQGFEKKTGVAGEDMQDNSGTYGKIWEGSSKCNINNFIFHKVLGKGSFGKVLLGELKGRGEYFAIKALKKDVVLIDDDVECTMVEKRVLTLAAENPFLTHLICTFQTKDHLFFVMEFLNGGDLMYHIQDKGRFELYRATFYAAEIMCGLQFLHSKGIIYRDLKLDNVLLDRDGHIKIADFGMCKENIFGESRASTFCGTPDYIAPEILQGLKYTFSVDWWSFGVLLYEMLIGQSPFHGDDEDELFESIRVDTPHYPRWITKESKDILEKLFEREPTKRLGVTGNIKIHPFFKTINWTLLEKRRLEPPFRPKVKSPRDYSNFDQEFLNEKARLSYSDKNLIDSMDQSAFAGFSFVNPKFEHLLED
T2 sequence (P05771 1-673 isoform P05771-2): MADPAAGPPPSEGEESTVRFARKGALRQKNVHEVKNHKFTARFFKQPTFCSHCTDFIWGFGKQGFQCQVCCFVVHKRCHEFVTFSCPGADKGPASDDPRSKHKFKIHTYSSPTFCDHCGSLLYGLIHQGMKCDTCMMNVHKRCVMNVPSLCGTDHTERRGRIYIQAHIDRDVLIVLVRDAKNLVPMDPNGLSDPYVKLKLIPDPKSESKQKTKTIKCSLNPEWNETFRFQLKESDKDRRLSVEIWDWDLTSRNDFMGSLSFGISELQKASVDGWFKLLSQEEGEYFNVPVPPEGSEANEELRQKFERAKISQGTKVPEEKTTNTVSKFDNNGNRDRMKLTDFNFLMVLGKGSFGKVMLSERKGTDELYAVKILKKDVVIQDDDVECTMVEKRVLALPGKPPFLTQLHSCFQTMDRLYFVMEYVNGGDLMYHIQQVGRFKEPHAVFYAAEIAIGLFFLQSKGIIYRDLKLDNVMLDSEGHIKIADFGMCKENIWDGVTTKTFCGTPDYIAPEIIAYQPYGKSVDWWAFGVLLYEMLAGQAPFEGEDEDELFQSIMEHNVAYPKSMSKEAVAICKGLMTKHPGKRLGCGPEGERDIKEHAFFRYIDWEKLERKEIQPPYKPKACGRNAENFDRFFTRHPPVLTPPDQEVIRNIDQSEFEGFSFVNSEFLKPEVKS

SMILES: O=C1C(Nc2ccc(S(=O)(=O)Nc3ncccn3)cc2)=CC(=Nc2ccc(S(=O)(=O)Nc3ncccn3)cc2)c2ccccc21 [Compound 3k]
- IC50 (PKC isoenzyme α): 113 µM
- IC50 (PKC isoenzyme βII): > 150 µM
- IC50 (PKC isoenzyme γ): 24 µM
- IC50 (PKC isoenzyme δ): > 150 µM
- IC50 (PKC isoenzyme ε): > 150 µM
- IC50 (PKC isoenzyme ζ): 37 µM
- IC50 [1]: 111 µM
- IC50 [2]: 1.8 µM

SMILES: CCCCCCCCCCCCCCCCNS(=O)(=O)c1ccc(N=C2C=C(Nc3ccc(S(=O)(=O)NCCCCCCCCCCCCCCCC)cc3)C(=O)c3ccccc32)cc1 [Compound 3o]
- IC50 (PKC isoenzyme α): 117 µM
- IC50 (PKC isoenzyme βII): 138 µM
- IC50 (PKC isoenzyme γ): 118 µM
- IC50 (PKC isoenzyme δ): 139 µM
- IC50 (PKC isoenzyme ε): > 150 µM
- IC50 (PKC isoenzyme ζ): 26 µM
- IC50 [1]: > 150 µM
- effect on PKA activity ([1]; result in words): did not effect on PKA activity
- IC50 [2]: 3.8 µM
